Tests used:
Format in all cases: cell-based
[1] = system: Proteus mirabilis; test: MIC against Gram-negative bacteria: Proteus mirabilis; conditions: Proteus mirabilis; 96-well plate, 5×10^5 CFU/mL, 37° C., 10 h
Outline: (§1)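 Read-out is absence of bacterial growth, with MIC set at the lowest recombinant protein concentration achieving it. Bacteria, pre-grown in LB to McFarland 0.5 and resuspended, were exposed at 5×10^5 CFU/mL to two-fold diluted human EGF domain proteins in triplicate at 37° C, 175 rpm.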

[2] = system: E. coli DH5α; test: Antibacterial activity: MIC and growth curve against E. coli DH5α in 96-well plate; conditions: minimal inhibitory concentration against E. coli DH5α; 96-well plate, 5×10^5 CFU/mL, 37° C., judged after 8 h
Outline: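 Log-phase bacteria (OD600 ~0.5) resuspended in LB at 5×10^5 CFU/mL, exposed to recombinant protein at 50, 25, 12.5 μg/mL final in triplicate, 37 °C shaking at 175 rpm. OD600 read every 30 min; MIC is lowest concentration showing no growth.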

[3] = system: Enterobacter cloacae; test: MIC against Gram-negative bacteria: Enterobacter cloacae; conditions: Enterobacter cloacae; 96-well plate, 5×10^5 CFU/mL, 37° C., 10 h
Outline: as §1

[4] = system: E. coli BL21; test: MIC against Gram-negative bacteria: E. coli BL21; conditions: E. coli BL21; 96-well plate, 5×10^5 CFU/mL, 37° C., 10 h
Outline: as §1

[5] = system: Serratia marcescens; test: MIC against Gram-negative bacteria: Serratia marcescens; conditions: Serratia marcescens; 96-well plate, 5×10^5 CFU/mL, 37° C., 10 h
Outline: as §1

[6] = system: Aeromonas hydrophila; test: MIC against Gram-negative bacteria: Aeromonas hydrophila; conditions: Aeromonas hydrophila; 96-well plate, 5×10^5 CFU/mL, 37° C., 10 h
Outline: as §1

[7] = system: Pseudomonas aeruginosa; test: MIC against Gram-negative bacteria: Pseudomonas aeruginosa; conditions: Pseudomonas aeruginosa; 96-well plate, 5×10^5 CFU/mL, 37° C., 10 h
Outline: as §1

[8] = system: Moraxella catarrhalis; test: MIC against Gram-negative bacteria: Moraxella catarrhalis; conditions: Moraxella catarrhalis; 96-well plate, 5×10^5 CFU/mL, 37° C., 10 h
Outline: as §1

[9] = system: Proteus vulgaris; test: MIC against Gram-negative bacteria: Proteus vulgaris; conditions: Proteus vulgaris; 96-well plate, 5×10^5 CFU/mL, 37° C., 10 h
Outline: as §1

[10] = system: Citrobacter diversus; test: MIC against Gram-negative bacteria: Citrobacter diversus; conditions: Citrobacter diversus; 96-well plate, 5×10^5 CFU/mL, 37° C., 10 h
Outline: as §1

[11] = system: Klebsiella pneumonia; test: MIC against Gram-negative bacteria: Klebsiella pneumonia; conditions: Klebsiella pneumonia; 96-well plate, 5×10^5 CFU/mL, 37° C., 10 h
Outline: as §1

| Substance | MIC (μg/mL) P. mirabilis [1] | MIC [2] | MIC (μg/mL) E. cloacae [3] | MIC (μg/mL) E. coli BL21 [4] | MIC (μg/mL) S. marcescens [5] | MIC (μg/mL) A. hydrophila [6] | MIC (μg/mL) P. aeruginosa [7] | MIC (μg/mL) M. catarrhalis [8] | MIC (μg/mL) P. vulgaris [9] | MIC (μg/mL) C. diversus [10] | MIC (μg/mL) K. pneumonia [11] |
| --- | --- | --- | --- | --- | --- | --- | --- | --- | --- | --- | --- |
| PRT45 (SINSCPNNCSGHGKCTTSVSVPSQVYCECDKYWKGEACD; listed as Homo sapiens) | 50 µg/mL | 50 µg/mL | 50 µg/mL | 25 µg/mL | 50 µg/mL | 25 µg/mL | 12.5 µg/mL | 25 µg/mL | 12.5 µg/mL | 12.5 µg/mL | 25 µg/mL |
| PRT46 (CQCNGHSTCINNNVCEQCKNLTTGKQCQDCMPGYYGDPTNGGQCTA; listed as Homo sapiens) | 25 µg/mL | 25 µg/mL | 25 µg/mL | 12.5 µg/mL | 100 µg/mL | 12.5 µg/mL | 50 µg/mL | 12.5 µg/mL | 12.5 µg/mL | 12.5 µg/mL | 12.5 µg/mL |
| PRT47 (CTCSGHANICHLHTGKCFCTTKGIKGDQCQLCDSENRYVGNPLRGTCYY; listed as Homo sapiens) | 25 µg/mL | 12.5 µg/mL | 25 µg/mL | 25 µg/mL | 12.5 µg/mL | 12.5 µg/mL | 12.5 µg/mL | 12.5 µg/mL | 50 µg/mL | 50 µg/mL | 12.5 µg/mL |
| PRT58 (PCALGEGPACAHCAPDNSTRCGSCNPGYVLAQGLCR; listed as Homo sapiens) | 100 µg/mL | 12.5 µg/mL | 12.5 µg/mL | 25 µg/mL | 50 µg/mL | 12.5 µg/mL | 12.5 µg/mL | 25 µg/mL | 25 µg/mL | 12.5 µg/mL | 12.5 µg/mL |
| PRT59 (PCTVGDASACLTCAPDNRTRCGTCNTGYMLSQGLCK; listed as Homo sapiens) | 25 µg/mL | 25 µg/mL | 25 µg/mL | 12.5 µg/mL | 12.5 µg/mL | 12.5 µg/mL | 25 µg/mL | 12.5 µg/mL | 12.5 µg/mL | 25 µg/mL | 50 µg/mL |
| PRT60 (EVDECSRPNRGGCEQRCLNTLGSYKCSCDPGYELAPDKRRCE; listed as Homo sapiens) | 50 µg/mL | 12.5 µg/mL | 12.5 µg/mL | 12.5 µg/mL | 50 µg/mL | 12.5 µg/mL | 12.5 µg/mL | 25 µg/mL | 12.5 µg/mL | 12.5 µg/mL | 12.5 µg/mL |
| PRT61 (KDECSKDNGGCQQDCVNTFGSYECQCRSGFVLHDNKHDCK; listed as Homo sapiens) | 25 µg/mL | 12.5 µg/mL | 12.5 µg/mL | 50 µg/mL | 25 µg/mL | 12.5 µg/mL | 12.5 µg/mL | 25 µg/mL | 12.5 µg/mL | 25 µg/mL | 12.5 µg/mL |
| PRT62 (ASGDCVPSPCHNGGTCLEEEEGVRCLCLPGYGGDLCD; listed as Homo sapiens) | 12.5 µg/mL | 12.5 µg/mL | 12.5 µg/mL | 100 µg/mL | 25 µg/mL | 25 µg/mL | 12.5 µg/mL | 25 µg/mL | 12.5 µg/mL | 12.5 µg/mL | 12.5 µg/mL |
| PRT63 (GCNFNNGGCHQDCFEGGDGSFLCGCRPGFRLLDDLVTCA; listed as Homo sapiens) | 12.5 µg/mL | 12.5 µg/mL | 12.5 µg/mL | 25 µg/mL | 12.5 µg/mL | 25 µg/mL | 12.5 µg/mL | 25 µg/mL | 25 µg/mL | 12.5 µg/mL | 25 µg/mL |
| PRT64 (PCSSSPCRGGATCALGPHGKNYTCRCPQGYQLDSSQLDCV; listed as Homo sapiens) | 25 µg/mL | 12.5 µg/mL | 12.5 µg/mL | 12.5 µg/mL | 25 µg/mL | 25 µg/mL | 50 µg/mL | 25 µg/mL | 25 µg/mL | 50 µg/mL | 25 µg/mL |
| PRT66 (DDNICLREPCENYMKCVSVLRFDSSAPFLSSTTVLFRPIHPINGLRCRCPPGFTGDYCE; listed as Homo sapiens) | 25 µg/mL | 12.5 µg/mL | 12.5 µg/mL | 12.5 µg/mL | 25 µg/mL | 12.5 µg/mL | 12.5 µg/mL | 12.5 µg/mL | 12.5 µg/mL | 25 µg/mL | 12.5 µg/mL |
| PRT67 (EIDLCYSDPCGANGRCRSREGGYTCECFEDFTGEHCE; listed as Homo sapiens) | 50 µg/mL | 12.5 µg/mL | 50 µg/mL | 50 µg/mL | 50 µg/mL | 25 µg/mL | 12.5 µg/mL | 25 µg/mL | 12.5 µg/mL | 12.5 µg/mL | 25 µg/mL |
| PRT68 (RSGRCANGVCKNGGTCVNLLIGGFHCVCPPGEYERPYCE; listed as Homo sapiens) | 12.5 µg/mL | 12.5 µg/mL | 12.5 µg/mL | 25 µg/mL | 100 µg/mL | 12.5 µg/mL | 12.5 µg/mL | 12.5 µg/mL | 12.5 µg/mL | 12.5 µg/mL | 25 µg/mL |
| PRT69 (RRNFCDGRRCQNGGTCVNRWNMYLCECPLRFGGKNCE; listed as Homo sapiens) | 12.5 µg/mL | 12.5 µg/mL | 25 µg/mL | 12.5 µg/mL | 12.5 µg/mL | 12.5 µg/mL | 25 µg/mL | 12.5 µg/mL | 12.5 µg/mL | 25 µg/mL | 12.5 µg/mL |
| PRT70 (VDDPCTSSPCPPNSRCHDAWEDYSCVCDKGYLGINC; listed as Homo sapiens) | 50 µg/mL | 12.5 µg/mL | 12.5 µg/mL | 12.5 µg/mL | 25 µg/mL | 25 µg/mL | 12.5 µg/mL | 12.5 µg/mL | 12.5 µg/mL | 12.5 µg/mL | 25 µg/mL |

— patent US9833497B2, “Human originated EGF domain proteins and use of the same” (CHENGDU SOURCEBIO LIMITED-LIABILITY COMPANY, priority 2013, dated 2017)
